The test system of experiment [1] is Stagonospora nodorum. Nature of the experiment: Fungicidal activity, microtiter plate agar growth assay. The conditions noted are these: Parastagonospora nodorum, read-out: In vivo IC50 S. nodorum. It counts as cell-based.
Experiment [2] deals with Phytophthora infestans. Nature of the experiment: microbe, parasite or virus in culture. It counts as cell-based. The conditions noted are these: read-out: In vivo IC50 P. infestens.
For experiment [3], the target named is yeast wt BC domain (Saccharomyces cerevisiae, UniProt Q00955). As to the kind of experiment: Tryptophan fluorescence binding assay. The following applies: for pEC50: protein concentration = 200 nM. As for the experimental part:
The soraphen binding pocket contains a tryptophan residue. Thus, tryptophan fluorescence may be used to directly monitor binding of a ligand to this site. […] We conducted a similar assay in a 96-well format. Briefly, 200 nM protein in 100 mM Tris pH 8 containing 100 mM NaCl and 0.01% Tween 20 (v/v) was incubated in the presence of various amounts of test compounds dissolved in DMSO (1% v/v final concentration). Tryptophan fluorescence at […] was measured in a Pherastar plate reader (BMG Labtech) using 280 nm excitation.

Experiment [4] concerns the target Ustilago maydis ACC (Mycosarcoma maydis, UniProt A0A0D1DYD5). As to the kind of experiment: biochemical. The experiment is classed as biochemical.
In experiment [5] the test system is Septoria tritici. Nature of the experiment: Fungicidal activity, microtiter plate agar growth assay. The experiment is classed as cell-based. The conditions noted are these: Zymoseptoria tritici, read-out: In vivo IC50 S. tritici.
Experiment [6] deals with Ustilago maydis K53R ACC (Mycosarcoma maydis, UniProt A0A0D1DYD5, K53R). As to the kind of experiment: biochemical. It counts as biochemical. The following applies: K53R mutation that confers resistance to soraphen.
Experiment [7] deals with Botrytis cinerea. Nature of the experiment: Fungicidal activity, microtiter plate agar growth assay. It counts as cell-based. The conditions noted are these: read-out: In vivo IC50 B. cinerea.
Experiment [8] addresses T1, hACC2 (Homo sapiens, UniProt O00763).
T1 construct: delete amino acids 1-148 and add Met-Gly in front of Lys149 in the final product; His tag (from pET30a) (C); made in house; host or cells: sf9 insect cells (baculovirus)
Nature of the experiment: Recombinant human ACC2 activity, [14C]bicarbonate incorporation. It counts as biochemical. The conditions noted are these: Table II; read-out: Enzyme Activity IC50 Human ACC2.

Experiment [9] addresses T2, hACC1 (Homo sapiens, UniProt Q13085).
T2 construct: we cloned full-length cDNAs for both the human isoforms (hACC1 and hACC2); His tag (from pET30a) (C); made in house; host or cells: sf9 insect cells (baculovirus)
As to the kind of experiment: Recombinant human ACC1 activity, [14C]bicarbonate incorporation. It counts as biochemical. The conditions noted are these: Table II; read-out: Enzyme Activity IC50 Human ACC1.

The target of experiment [10] is T3, rat liver ACC (Rattus norvegicus, UniProt P11497). As to the kind of experiment: Rat liver ACC activity, [14C]bicarbonate incorporation. It counts as biochemical. The source says: (§1) To test the effect of compounds against mammalian ACC both human and rat enzyme preparations were employed. ACC was purified from rat liver according to published protocols (Rubink and Winder, J Appl Physiol 98, 1221-1227 (2005); Trumble et al., Eur J Biochem 231, 192-198 (1995)). Rat liver contains both ACC1 and ACC2 in a ˜85:15 ratio, respectively (Harwood et al., J Biol Chem 278, 37099-37111 (2003)).

For experiment [11], the target named is BC domain of eukaryotic ACCs. The conditions noted are these: literature; cited from earlier work.
Experiment [12] addresses T3, rat liver ACC. As to the kind of experiment: FP saturation binding assay.
Source text: as §1

Experiment [13] deals with bacterial BC subunits. The following applies: literature; cited from earlier work.
The target in experiment [14] is yeast BC domain (Saccharomyces cerevisiae, UniProt Q00955). The conditions noted are these: cited from earlier work.
Where [15] appears, read: fungal growth on agar, 20° C., 3-5 days.
The mark [16] stands for this setting: Table I, read-out: In vitro IC50 U. maydis ACC activity.
Where [17] appears, read: Table II, enzyme concentration 50 nM, read-out: Enzyme Activity IC50 U. maydis ACC.
Where [18] appears, read: Table II, enzyme concentration 25 nM, ND = none detected, read-out: Enzyme Activity IC50 Rat liver ACC.

pEC50, pIC50, pKd: −log10 of the molar value. Read-outs that look alike come from different tables or passages of the source.

Sequence of Ustilago maydis ACC (A0A0D1DYD5 entry or part of it): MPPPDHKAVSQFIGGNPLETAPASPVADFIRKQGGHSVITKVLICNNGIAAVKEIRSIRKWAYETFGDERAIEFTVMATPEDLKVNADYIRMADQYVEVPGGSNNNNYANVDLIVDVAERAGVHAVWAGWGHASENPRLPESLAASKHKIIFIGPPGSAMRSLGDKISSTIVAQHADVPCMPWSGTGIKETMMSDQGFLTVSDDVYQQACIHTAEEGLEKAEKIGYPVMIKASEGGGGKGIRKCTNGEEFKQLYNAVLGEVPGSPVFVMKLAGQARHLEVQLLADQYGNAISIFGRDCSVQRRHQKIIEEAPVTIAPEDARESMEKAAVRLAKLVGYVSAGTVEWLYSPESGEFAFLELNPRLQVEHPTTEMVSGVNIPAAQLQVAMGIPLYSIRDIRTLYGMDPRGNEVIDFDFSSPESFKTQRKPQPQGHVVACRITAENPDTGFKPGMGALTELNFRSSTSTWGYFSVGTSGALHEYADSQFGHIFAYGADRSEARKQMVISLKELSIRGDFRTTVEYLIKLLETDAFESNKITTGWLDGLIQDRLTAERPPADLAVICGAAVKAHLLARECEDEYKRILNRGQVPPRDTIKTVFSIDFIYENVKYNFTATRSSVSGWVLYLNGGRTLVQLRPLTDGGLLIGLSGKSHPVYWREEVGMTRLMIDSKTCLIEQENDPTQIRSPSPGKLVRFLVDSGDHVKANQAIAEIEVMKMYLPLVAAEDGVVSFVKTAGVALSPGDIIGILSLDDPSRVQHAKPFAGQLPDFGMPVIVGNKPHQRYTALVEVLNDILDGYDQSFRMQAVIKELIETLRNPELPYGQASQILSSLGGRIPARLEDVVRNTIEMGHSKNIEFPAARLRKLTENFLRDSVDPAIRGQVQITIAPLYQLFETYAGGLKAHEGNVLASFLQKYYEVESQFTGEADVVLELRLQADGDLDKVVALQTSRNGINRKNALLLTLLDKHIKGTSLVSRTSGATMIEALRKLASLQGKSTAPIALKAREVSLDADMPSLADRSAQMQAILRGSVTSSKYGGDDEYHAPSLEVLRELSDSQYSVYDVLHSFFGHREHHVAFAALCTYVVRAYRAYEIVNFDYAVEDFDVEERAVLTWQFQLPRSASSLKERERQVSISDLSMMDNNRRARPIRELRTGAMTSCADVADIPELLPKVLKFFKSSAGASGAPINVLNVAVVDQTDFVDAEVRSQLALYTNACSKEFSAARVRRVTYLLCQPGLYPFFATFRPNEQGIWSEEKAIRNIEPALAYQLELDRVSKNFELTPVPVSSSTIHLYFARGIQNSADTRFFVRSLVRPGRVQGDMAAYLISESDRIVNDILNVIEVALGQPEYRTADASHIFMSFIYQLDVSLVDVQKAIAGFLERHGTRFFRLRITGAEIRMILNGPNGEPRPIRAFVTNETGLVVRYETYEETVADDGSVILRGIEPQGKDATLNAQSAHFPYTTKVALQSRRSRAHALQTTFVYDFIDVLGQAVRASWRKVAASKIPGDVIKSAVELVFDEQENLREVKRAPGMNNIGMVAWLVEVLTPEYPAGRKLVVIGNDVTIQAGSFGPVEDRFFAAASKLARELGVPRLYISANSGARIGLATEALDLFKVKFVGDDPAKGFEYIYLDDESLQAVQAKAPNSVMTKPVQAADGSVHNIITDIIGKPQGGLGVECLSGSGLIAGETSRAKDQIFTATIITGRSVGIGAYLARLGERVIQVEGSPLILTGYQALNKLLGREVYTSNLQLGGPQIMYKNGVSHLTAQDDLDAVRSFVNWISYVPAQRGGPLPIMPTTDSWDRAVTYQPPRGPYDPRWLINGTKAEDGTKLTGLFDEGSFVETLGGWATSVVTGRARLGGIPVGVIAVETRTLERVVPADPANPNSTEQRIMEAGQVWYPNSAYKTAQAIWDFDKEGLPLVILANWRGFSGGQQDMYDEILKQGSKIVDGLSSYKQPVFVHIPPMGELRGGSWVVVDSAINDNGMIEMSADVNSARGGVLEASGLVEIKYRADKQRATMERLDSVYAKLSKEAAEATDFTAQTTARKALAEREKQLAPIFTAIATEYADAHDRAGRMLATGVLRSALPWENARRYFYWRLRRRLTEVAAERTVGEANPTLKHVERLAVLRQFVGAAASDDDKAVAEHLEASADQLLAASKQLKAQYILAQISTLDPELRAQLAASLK
T1 sequence (O00763 with tags, fused parts or gaps): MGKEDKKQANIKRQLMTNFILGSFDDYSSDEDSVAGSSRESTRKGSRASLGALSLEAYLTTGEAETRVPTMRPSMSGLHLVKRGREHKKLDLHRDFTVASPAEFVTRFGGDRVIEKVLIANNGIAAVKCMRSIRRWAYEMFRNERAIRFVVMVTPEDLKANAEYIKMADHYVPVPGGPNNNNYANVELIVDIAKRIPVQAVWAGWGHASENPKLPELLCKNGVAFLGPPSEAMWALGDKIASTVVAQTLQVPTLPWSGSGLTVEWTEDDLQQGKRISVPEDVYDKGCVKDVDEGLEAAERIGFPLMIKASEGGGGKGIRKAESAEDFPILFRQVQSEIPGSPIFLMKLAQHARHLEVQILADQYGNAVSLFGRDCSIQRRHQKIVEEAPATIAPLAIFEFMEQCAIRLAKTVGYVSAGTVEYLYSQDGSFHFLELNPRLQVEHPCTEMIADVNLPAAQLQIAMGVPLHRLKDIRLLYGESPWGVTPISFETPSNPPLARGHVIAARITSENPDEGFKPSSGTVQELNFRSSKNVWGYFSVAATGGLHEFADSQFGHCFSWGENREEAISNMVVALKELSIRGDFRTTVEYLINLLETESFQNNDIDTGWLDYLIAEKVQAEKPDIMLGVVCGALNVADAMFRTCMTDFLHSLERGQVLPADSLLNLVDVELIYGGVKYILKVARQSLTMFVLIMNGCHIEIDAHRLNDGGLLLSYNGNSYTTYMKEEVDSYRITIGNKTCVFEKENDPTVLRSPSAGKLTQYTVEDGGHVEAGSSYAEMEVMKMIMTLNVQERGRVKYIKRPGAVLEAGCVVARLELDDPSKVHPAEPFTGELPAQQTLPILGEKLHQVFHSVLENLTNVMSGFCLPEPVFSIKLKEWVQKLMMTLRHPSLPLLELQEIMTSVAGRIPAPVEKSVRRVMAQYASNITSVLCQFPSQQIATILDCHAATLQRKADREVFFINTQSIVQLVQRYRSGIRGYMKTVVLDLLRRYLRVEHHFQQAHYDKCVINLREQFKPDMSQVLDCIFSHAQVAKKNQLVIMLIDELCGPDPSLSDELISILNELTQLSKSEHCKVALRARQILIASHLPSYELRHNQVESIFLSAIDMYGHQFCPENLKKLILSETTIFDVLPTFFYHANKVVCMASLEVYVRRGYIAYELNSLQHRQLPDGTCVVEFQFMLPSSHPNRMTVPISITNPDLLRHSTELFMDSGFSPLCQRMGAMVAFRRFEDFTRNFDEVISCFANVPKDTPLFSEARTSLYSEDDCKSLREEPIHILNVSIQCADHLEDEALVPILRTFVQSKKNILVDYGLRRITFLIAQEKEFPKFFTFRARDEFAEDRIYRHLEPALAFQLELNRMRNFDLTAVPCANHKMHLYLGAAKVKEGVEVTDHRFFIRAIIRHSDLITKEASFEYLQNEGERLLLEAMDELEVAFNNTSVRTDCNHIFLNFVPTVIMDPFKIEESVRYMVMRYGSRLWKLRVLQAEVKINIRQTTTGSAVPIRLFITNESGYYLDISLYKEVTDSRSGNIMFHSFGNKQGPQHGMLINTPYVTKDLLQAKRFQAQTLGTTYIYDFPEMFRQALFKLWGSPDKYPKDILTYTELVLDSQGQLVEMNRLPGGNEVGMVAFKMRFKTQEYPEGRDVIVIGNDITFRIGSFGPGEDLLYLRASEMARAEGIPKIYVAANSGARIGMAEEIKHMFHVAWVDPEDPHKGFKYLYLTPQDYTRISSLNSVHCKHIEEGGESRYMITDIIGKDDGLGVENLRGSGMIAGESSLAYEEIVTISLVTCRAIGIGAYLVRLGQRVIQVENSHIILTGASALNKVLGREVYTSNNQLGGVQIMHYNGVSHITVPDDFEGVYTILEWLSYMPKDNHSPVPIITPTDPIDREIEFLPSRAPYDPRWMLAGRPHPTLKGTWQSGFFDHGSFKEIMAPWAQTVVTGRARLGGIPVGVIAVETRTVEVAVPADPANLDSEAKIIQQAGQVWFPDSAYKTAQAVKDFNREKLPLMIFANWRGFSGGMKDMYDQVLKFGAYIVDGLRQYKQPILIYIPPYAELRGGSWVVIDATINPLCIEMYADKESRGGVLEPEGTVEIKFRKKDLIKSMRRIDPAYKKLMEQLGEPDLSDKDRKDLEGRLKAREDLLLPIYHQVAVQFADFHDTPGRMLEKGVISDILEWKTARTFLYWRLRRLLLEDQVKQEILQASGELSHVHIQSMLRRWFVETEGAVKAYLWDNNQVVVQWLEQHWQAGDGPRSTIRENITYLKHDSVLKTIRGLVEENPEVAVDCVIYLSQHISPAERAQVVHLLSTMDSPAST
Sequence of yeast wt BC domain (Q00955 58-567): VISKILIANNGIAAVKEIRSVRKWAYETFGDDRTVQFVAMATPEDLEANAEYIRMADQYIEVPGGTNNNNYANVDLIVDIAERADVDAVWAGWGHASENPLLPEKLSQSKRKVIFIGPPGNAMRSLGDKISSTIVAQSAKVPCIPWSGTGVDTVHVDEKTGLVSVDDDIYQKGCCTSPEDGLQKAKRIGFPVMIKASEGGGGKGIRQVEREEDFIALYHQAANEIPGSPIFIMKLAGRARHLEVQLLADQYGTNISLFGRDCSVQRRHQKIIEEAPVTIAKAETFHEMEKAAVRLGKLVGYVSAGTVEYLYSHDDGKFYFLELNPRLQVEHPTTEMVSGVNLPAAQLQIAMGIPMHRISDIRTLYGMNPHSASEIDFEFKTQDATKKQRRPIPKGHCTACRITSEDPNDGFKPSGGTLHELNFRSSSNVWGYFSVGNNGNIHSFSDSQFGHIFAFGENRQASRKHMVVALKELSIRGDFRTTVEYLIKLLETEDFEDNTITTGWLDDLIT

Take `CC[N+](CC)(CCCCN(Cc1cc(C)cc(C)c1)Cc1cc(C)cc(C)c1)Cc1cc(C)cc(C)c1.[Br-]` [Compound 28, Diethyl(3,5-dimethylbenzyl)[bis-(3,5-dimethylbenzyl)aminobutyl]ammonium formate]: the pIC50 was 5.14 in experiment [1]; 4.67 in experiment [2]; 4.96 in experiment [4] (Enzyme activity IC50 U. maydis wt ACC); 4.77 in [4] (In vitro IC50 U. maydis ACC activity); 4.96 in [5]; 5.74 in experiment [7]. Moreover, the “Effect on tryptophan fluorescence of yeast BC domain” value in [3] was “quenched”. In experiment [3], this compound showed a negative-log EC50 (pEC50) of 4.96. Besides, in experiment [6], the “Effect of K53R mutation on inhibition of ACC by compound” value is “confers resistance to inhibition”.

For `Cc1cc(C)cc(CN(CCC[N+](C)(C)Cc2cc(C)cc(C)c2)Cc2cc(C)cc(C)c2)c1` [Compound 26], the pIC50 in experiment [1] (setting [15]) was 5.30; in experiment [2], 4.63; in experiment [4] (setting [16]), 4.41; in experiment [5] (setting [15]) it was 5.22; in [7] (setting [15]), 6.00.

In the case of `Cc1cc(C)cc(CN(CC[N+](C)(C)Cc2cc(C)cc(C)c2)Cc2cc(C)cc(C)c2)c1` [Compound 25], the pIC50 in [1] (setting [15]) was 5.24; in [2], 4.74; in experiment [4] (setting [16]), 4.38; in experiment [5] (setting [15]), 5.00; in [7] (setting [15]), 5.85.

On to `CC[N+](CC)(CCCCN(Cc1ccc2ccccc2c1)C(=O)c1sc2cccc(Cl)c2c1Cl)Cc1cc(C)cc(C)c1.[Br-]` [Compound 322], for which the negative-log IC50 (pIC50) in experiment [8] is 6.00; in experiment [4] (setting [17]), 7.40; in experiment [9], 6.60. In experiment [6], the “Effect of K53R mutation on inhibition of ACC by compound” value was “confers resistance to inhibition”.

For the compound `CC[N+](CC)(CCCCN(Cc1cc(C)cc(C)c1)C(=O)c1cc(C)cc(C)c1)Cc1cc(C)cc(C)c1` [Compound 76], the pIC50 in experiment [4] (setting [17]) was 4.52.

Take `Cc1cc(C)cc(CN(CCCC[N+](C)(C)Cc2cc(C)cc(C)c2)C(=S)Nc2c(F)cccc2F)c1` [Compound 74]: in experiment [4] (setting [17]), the negative logarithm of the IC50 (pIC50) is 5.05.

For `CO[C@H]1CCCC[C@@H](c2ccccc2)OC(=O)[C@@H](C)[C@@]2(O)O[C@H]([C@@H](C)[C@H](O)[C@H]2OC)[C@@H](C)/C=C/[C@H]1OC` [soraphen A, Soraphen A, reference compound], the pIC50 was 7.85 in [10] (tight binding conditions, nominal enzyme concentration 25 nM, read-out: IC50 rat liver ACC activity); 8.57 in experiment [8]; 7.77 in experiment [4] (setting [17]); 7.77 in [4] (Table III, enzyme concentration = 50 nM, read-out: Enzyme activity IC50 U. maydis wt ACC); 7.77 in [4] (read-out: IC50 inhibition of fungal ACC); 7.96 in experiment [9]. Further, the pKd in experiment [11] was ~9.00; in experiment [12], 8.49; in [14], 9.00. The pEC50 in experiment [3] was 7.05. Moreover, in experiment [13], the “Effect on bacterial BC subunits” value was “no effect”.

On to `CC[N+](CC)(CCCCN(Cc1ccc2ccccc2c1)S(=O)(=O)c1cccc(Cl)c1Cl)Cc1cc(C)cc(C)c1` [Compound 237], for which the pIC50 was 4.30 in experiment [8], 5.85 in experiment [4] (setting [17]) and 4.92 in experiment [9].

On to `Cc1cc(C)cc(CN(CCCC[N+](C)(C)Cc2cc(C)cc(C)c2)S(=O)(=O)c2ccc(Br)cc2)c1` [Compound 61], for which the pIC50 in [4] (setting [17]) is 5.05.

With `CC[N+](CC)(CCCCN(Cc1cc(C)cc(C)c1)S(=O)(=O)c1ccc2ccccc2c1)Cc1cc(C)cc(C)c1` [Compound 85, Diethyl(3,5-dimethylbenzyl)[N-(3,5-dimethylbenzyl)-2-naphthalenesulfonamidobutyl]ammonium bromide], the pIC50 is 4.37 in experiment [10] (setting [18]) and 4.82 in [4] (setting [17]).

Consider `CC[N+](CC)(CCCCN(Cc1cc(C)cc(C)c1)C(=O)c1ccc2ccccc2c1)Cc1cc(C)cc(C)c1` [Compound 133, Diethyl(3,5-dimethylbenzyl)[N-(3,5-dimethylbenzyl)-2-naphthalenecarboxamidobutyl]ammonium bromide], for which, in experiment [4] (setting [17]), the pIC50 is 5.52.

As to `CC[N+](CC)(CCCCN(Cc1ccc2ccccc2c1)C(=O)c1sc2c(Cl)c(OC)ccc2c1Cl)Cc1cc(C)cc(C)c1` [Compound 326], the negative-log IC50 (pIC50) in [8] is 5.82; in experiment [4] (setting [17]), 6.74; in experiment [9], 6.82.

Regarding `C[N+]1(Cc2ccc(Cl)c(Cl)c2)CCN(CCCn2c(SCc3ccc(Cl)c(Cl)c3)nc3ccc(Br)cc3c2=O)CC1` [Compound 7], the pIC50 in experiment [1] (setting [15]) is 5.10; in experiment [2], 3.70; in [4] (setting [16]), 4.77; in [5] (setting [15]), 5.32; in [7] (setting [15]) it was 5.37.

In the case of `Cc1cc(C)cc(CN(CCCC[N+](C)(C)Cc2cc(C)cc(C)c2)Cc2cc(C)cc(C)c2)c1` [Compound 19], the pIC50 in [1] (setting [15]) is 4.19; in [2], 4.60; in experiment [4] (setting [16]), 4.68; in [5] (setting [15]), 4.66; in [7] (setting [15]), 5.15.

As for `COc1cc2c(=O)n(CCCC[N+](C)(C)Cc3ccc(Br)cc3)c(=S)n(Cc3ccc(Br)cc3)c2c(OC)c1OC` [Compound 15], the pIC50 is 5.10 in experiment [1] (setting [15]); 4.74 in [2]; 4.80 in experiment [4] (setting [16]); 5.40 in [5] (setting [15]); 5.70 in experiment [7] (setting [15]).

Regarding “Diethyl(3,5-dimethylbenzyl)[N-(2-naphthylmethyl)-2-naphthalenesulfonamidobutyl]ammonium bromide [Compound 200]”, the pIC50 in experiment [10] (setting [18]) was 4.96; in experiment [8] it was 4.66; in experiment [4] (setting [17]), 6.25; in experiment [9], 5.12.

Turning to `CC[N+](CC)(CCCCN(Cc1ccc2c(c1)OCCO2)S(=O)(=O)c1ccc2ccccc2c1)Cc1cc(C)cc(C)c1.[Br-]` [Compound 184], the “Effect of K53R mutation on inhibition of ACC by compound” value in experiment [6] is given as “confers resistance to inhibition”.

As for `COc1cc2c(=O)n(CCCC[N+](C)(CCC[N+](C)(C)Cc3cc(C)cc(C)c3)Cc3cc(C)cc(C)c3)c(SCc3cc(C)cc(C)c3)nc2c(OC)c1OC` (centres unmarked) [Compound 22], the negative logarithm of the IC50 (pIC50) in experiment [1] (setting [15]) is 5.34; in [2], 4.46; in [4] (setting [16]) it was 4.92; in [5] (setting [15]), 5.36; in experiment [7] (setting [15]), 5.17.

For the compound `CC[N+](CC)(CCCCN(Cc1ccc2ccccc2c1)C(=O)c1cc2cccc(OC)c2cc1OC)Cc1cc(C)cc(C)c1` [Compound 260], the pIC50 in experiment [8] is 4.96; in [4] (setting [17]), 5.85; in experiment [9], 5.55.

(Values after patent US20080200461A1, “MODULATORS OF ACETYL-COENZYME A CARBOXYLASE AND METHODS OF USE THEREOF” (Cropsolution, Inc., priority 2007, published 2008).)
